Results from US5189025A, “Methods for the treatment of malignant disease in patients using citrulline containing amino acid solutions” (priority 1990, dated 1993).
“Also recorded” adds a separate entry of the source. Read-outs that look alike come from different tables or passages of the source.

Legend:
RBC putrescine levels = test: RBC putrescine in tumor-bearing and non tumor-bearing rats infused with feeding solutions (Table V); conditions: vs chow or essential amino acids only
Description: Another experiment which utilized formulations containing amino acid precursors of RBC polyamines, compared the response of tumor-bearing rats (TB) to non tumor-bearing rats (NTB). The study was performed basically in the manner described above with the following indicated differences. […] Chow rats (C) were fed chow with no i.v. infusion.
Where N is the number of rats included in the study, PUT is RBC levels (nm/g/ml, means±SD) of putrescine determined by HPLC.

[1] = system: polyamine levels (erythrocyte and tumor); test: RBC and tumor polyamine levels in tumor-bearing rats infused with amino acid solutions (Example II, Table IV); assay type: in vivo, male Fisher 344 rats; conditions: infusion alone, not in combination with essential amino acids; experimental tumor system
Description: A methylcholanthrene-induced fibrosarcoma (0.17 g) was implanted as a brei into the right flank under anesthesia and the animals were fed a chow diet for 21 days. When the tumors were at least 1.0 cm in width, two-dimensional measurements with calipers were instituted and the equation, length (cm)×(width [cm])^2 ×1/2=grams of tumor tissue, was used to estimate tumor weight. […] The animals were then allowed to recover overnight and continuous infusions were started the next morning. […] Nephramine is a parenteral amino acid solution consisting of eight essential amino acids and histidine. After 6 days of continuous infusion, the animals were sacrificed by aortic bleeding. Liver and tumor were excised and weighed and kept frozen at -70° C. until assays were done. Only viable, nonnecrotic tumor tissue was saved and assayed.
Preparation of tumor tissue for polyamine assay was done in the following manner. Tumor tissue weighing 0.5 to 1.5 g was cut into small pieces and put into a disposable tube (16×100 mm). Ice-cold 4% sulfosalicylic acid was then added at 2 ml/g wet tissue. This mixture was homogenized in an ice bath for 40 seconds using the Brinkman Polytron homogenizer (P10ST generator set at 8.5). The suspension was centrifuged at 100,000 g for 30 minutes and the resulting clear supernatant was analyzed for polyamines on a Durrum D-500 amino acid analyzer.

[2] = system: DFMO-induced thrombocytopenia; test: Influence of ornithine co-administration on DFMO-induced thrombocytopenia in the rat (Table VI); conditions: 12 days continuous infusion
[3] = system: platelet counts / host toxicity; test: DFMO toxicity, continuous i.v. infusion for 12 days in rats (FIG. 3); assay type: in vivo
Description: FIG. 3. […] Bars indicate standard deviation.
In the above described rat model, a continuous infusion of DFMO was given through a central venous catheter.

[4] = system: platelet counts / host toxicity; design: species or system human (patients with advanced colorectal carcinoma); conditions: human, in vivo
Description: FIG. 4. Platelet counts plotted against days of continuous i.v. DFMO infusion in patients with advanced colorectal carcinoma. […] The paired points are connected by a straight line.
There was no incidence of nausea, vomiting or diarrhea.

[5] = system: DFMO-induced thrombocytopenia; conditions: rat, in vivo
MCA sarcoma = test: DFMO effect on growth of MCA sarcoma; assay type: in vivo

Structure (SMILES): N=C(N)NCCC[C@H](N)C(=O)O [arginine]
- increase in RBC putrescine levels in NTB rats (RBC putrescine levels): significantly greater (p<0.05)
- blood polyamine levels [1]: has not produced elevated blood polyamine levels

Structure (SMILES): NCCC[C@H](N)C(=O)O [ornithine]
- platelet suppression / change in platelet count [2]: blocked platelet suppression; also recorded: significant reversal in the platelet suppression

Structure (SMILES): NCCCC(N)(C(=O)O)C(F)F (centres unmarked) [DFMO, Difluoromethylornithine]
- decrease in tumor putrescine levels (tumor putrescine levels; DFMO infusion, rat-tumor model): 90%
- peripheral platelet counts (tumor putrescine levels; rat, in vivo): without suppressing peripheral platelet counts
- clinical toxicity ([3]; 12 day study): no significant clinical toxicity
- White cell count and hematocrit changes ([3]; rat, in vivo): not significantly altered
- White cell count [4]: not affected by either dose
- decreased hearing acuity (patients) [4]: two patients
- hematocrit [4]: Significant suppression of the hematocrit
- nausea, vomiting or diarrhea [4]: no incidence
- platelet suppression [4]: platelet suppression is the major limiting host toxicity
- platelet suppression, 8 g compared with 6 g dose [4]: significantly greater platelet suppression at the 8 g dose
- Platelets [5]: 409 ± 127 × 10^3 /cu. mm
- platelet suppression / change in platelet count [5]: significant decrease in platelet count as compared with the saline treatment
- tumor regression (MCA sarcoma; MCA sarcoma): does not produce tumor regression
- growth rate of an MCA sarcoma (MCA sarcoma; in vivo): reduces the growth rate
